Among the data in PubChem BioAssay (NCI) are GI50 and TGI values, retold here.

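Growth conditions: 96-well plates. Treatment: test compound, 48 hours, 5 concentrations. Analysis: linear interpolation between bracketing concentrations; unreached endpoints set to highest concentration. GI50 marks 50% less growth. At the TGI there is no net growth.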

Among the test systems are OVCAR-5 ovarian; SR leukemia; U251 CNS; NCI-H522 lung; OVCAR-4 ovarian; SK-MEL-28 melanoma; DU-145 prostate; OVCAR-8 ovarian; K-562 leukemia; OVCAR-3 ovarian.
Holding throughout (test): inhibition of tumour cell growth, NCI panel, 48 h

`COC(=O)[C@H](Cc1ccccc1)NC(=O)c1csc([C@@H](C[C@H](C(C)C)N(C)C(=O)[C@@H](NC(=O)[C@H]2CCCN2C)C2CC2)OC(C)=O)n1`: the GI50 was 1.66 µM with OVCAR-5 ovarian; 10.3 nM with SR leukemia; 0.521 µM with U251 CNS; 0.0783 µM in the experiment on NCI-H522 lung; 3.98 µM in the experiment on OVCAR-4 ovarian; 2.48 µM with SK-MEL-28 melanoma. Also, the figures for the GI50 in the experiment with DU-145 prostate, in the experiment with OVCAR-8 ovarian and in the experiment on K-562 leukemia were 0.346 µM, 0.602 µM and 113 nM, respectively. For the same compound, the TGI with OVCAR-5 ovarian, in the experiment on SR leukemia, in the experiment on U251 CNS, in the experiment on NCI-H522 lung, in the experiment with OVCAR-4 ovarian and with SK-MEL-28 melanoma was greater than 33.3 µM in each case. Further, the TGI in the experiment with DU-145 prostate, with OVCAR-8 ovarian and in the experiment with K-562 leukemia was greater than 33.3 µM each time.

Consider `COc1ccc(C2ONC3=NCCN32)cc1` (stereo not drawn), for which the GI50 with OVCAR-5 ovarian is greater than 100 µM; in the experiment on U251 CNS, 45 µM; with OVCAR-3 ovarian, 35.2 µM; in the experiment on NCI-H522 lung, greater than 100 µM; with OVCAR-4 ovarian it was greater than 100 µM; in the experiment with SK-MEL-28 melanoma it was greater than 100 µM. Also, the GI50 in the experiment on DU-145 prostate was 70.3 µM; in the experiment with OVCAR-8 ovarian, 67.7 µM; in the experiment with K-562 leukemia, 38300 nM. Moreover, the TGI in the experiment with OVCAR-5 ovarian, in the experiment with U251 CNS, with OVCAR-3 ovarian, in the experiment on NCI-H522 lung, in the experiment on OVCAR-4 ovarian and in the experiment with SK-MEL-28 melanoma was greater than 100 µM in each case. Further, the TGI with DU-145 prostate, in the experiment on OVCAR-8 ovarian and with K-562 leukemia was greater than 100 µM throughout.

For `CCN(CC)CCOc1ccc(/C=C2\CC3C4CC=C5C[C@@H](OC(C)=O)CC[C@]5(C)C4CC[C@]3(C)C2=O)cc1OC` (stereo partly drawn), the GI50 in the experiment with OVCAR-5 ovarian is 3.38 µM; with U251 CNS, 11.4 µM; with OVCAR-3 ovarian, 1.78 µM; with NCI-H522 lung, 14.4 µM; with OVCAR-4 ovarian it was 20.9 µM; in the experiment on DU-145 prostate, 3.87 µM. The GI50 with OVCAR-8 ovarian was 20 µM; in the experiment with K-562 leukemia, 1290 nM. Besides, the TGI was 12.4 µM in the experiment with OVCAR-5 ovarian; 25.8 µM in the experiment on U251 CNS; 3.45 µM in the experiment on OVCAR-3 ovarian; 33.1 µM in the experiment with NCI-H522 lung; greater than 100 µM with OVCAR-4 ovarian; 16.6 µM with DU-145 prostate. The TGI with OVCAR-8 ovarian is 49 µM; with K-562 leukemia it was 23.6 µM.

In the case of `COc1ccccc1/C=C\C(=O)c1ccccc1`, the GI50 in the experiment with OVCAR-5 ovarian is 17.7 µM; with SR leukemia it was 2770 nM; with U251 CNS, 4.25 µM; with OVCAR-3 ovarian, 7.43 µM; with NCI-H522 lung, 2.39 µM; in the experiment on OVCAR-4 ovarian, 4.31 µM. Moreover, the GI50 in the experiment with DU-145 prostate was 8.38 µM; in the experiment with OVCAR-8 ovarian it was 4.21 µM; with K-562 leukemia it was 2570 nM. Besides, the TGI in the experiment on OVCAR-5 ovarian was determined as 32.5 µM; in the experiment with SR leukemia it was 18 µM; with U251 CNS, 16.8 µM; with OVCAR-3 ovarian, 19.3 µM; in the experiment on NCI-H522 lung, 7 µM; in the experiment on OVCAR-4 ovarian it was 17.1 µM. The TGI is 20.5 µM in the experiment with DU-145 prostate, 15 µM in the experiment with OVCAR-8 ovarian and 13.9 µM in the experiment on K-562 leukemia.

For `CC1(C)C2CCC13C(=O)C1OC3(C2)C2C(=O)c3c(O)cccc3C(=O)C12` (stereo not drawn), the GI50 was 4.25 µM with OVCAR-5 ovarian; 0.64 µM in the experiment with U251 CNS; 0.18 µM with OVCAR-3 ovarian; 3.2 µM in the experiment with NCI-H522 lung; 3.58 µM with SK-MEL-28 melanoma; 0.196 µM in the experiment on DU-145 prostate. For the same compound, the GI50 was 0.821 µM in the experiment with OVCAR-8 ovarian and 703 nM with K-562 leukemia. In addition, the TGI in the experiment on OVCAR-5 ovarian was 13.7 µM; in the experiment with U251 CNS, 1.81 µM; with OVCAR-3 ovarian it was 0.648 µM; in the experiment with NCI-H522 lung, 10.1 µM; in the experiment on SK-MEL-28 melanoma, 21.1 µM; in the experiment with DU-145 prostate, 0.386 µM. In addition, the values for the TGI with OVCAR-8 ovarian and with K-562 leukemia were 2.68 µM and 1.79 µM, respectively.

In the case of `NC(=O)c1cc(I)ccc1NC(=O)COc1ccccc1`, the GI50 in the experiment with OVCAR-5 ovarian was 2.24 µM; in the experiment with SR leukemia, 285 nM; in the experiment on U251 CNS, 0.365 µM; in the experiment on OVCAR-3 ovarian, 0.336 µM; with NCI-H522 lung it was 0.508 µM; in the experiment with SK-MEL-28 melanoma it was 2.57 µM. Besides, the figures for the GI50 in the experiment with DU-145 prostate, in the experiment on OVCAR-8 ovarian and in the experiment on K-562 leukemia were 0.457 µM, 0.876 µM and 214 nM, respectively. The TGI was greater than 100 µM with OVCAR-5 ovarian; greater than 74.1 µM in the experiment with SR leukemia; 10.8 µM in the experiment with U251 CNS; 1.35 µM in the experiment with OVCAR-3 ovarian; 12.9 µM with NCI-H522 lung; greater than 100 µM with SK-MEL-28 melanoma. Moreover, the TGI in the experiment with DU-145 prostate is 32.2 µM; with OVCAR-8 ovarian it was greater than 100 µM; with K-562 leukemia it was 24.2 µM.

With `COc1ccc(/C=C/C(=O)C(C)(C)Br)cc1`, the TGI was 28.1 µM with OVCAR-5 ovarian; 13.6 µM in the experiment on SR leukemia; 28.6 µM in the experiment with U251 CNS; 35 µM with OVCAR-3 ovarian; 2.92 µM in the experiment with NCI-H522 lung; 37.2 µM in the experiment with DU-145 prostate. In addition, the TGI with OVCAR-8 ovarian was 11.5 µM; with K-562 leukemia it was greater than 100 µM.

With `CCCn1cnc2c(SCc3ccccc3)nc(N)nc21`, the GI50 with OVCAR-5 ovarian was greater than 100 µM; with SR leukemia, 49600 nM; with U251 CNS, 41.4 µM; in the experiment on OVCAR-3 ovarian, greater than 100 µM; in the experiment with NCI-H522 lung it was greater than 100 µM; in the experiment with SK-MEL-28 melanoma, greater than 100 µM. For the same compound, the results for the GI50 in the experiment with DU-145 prostate, in the experiment with OVCAR-8 ovarian and in the experiment on K-562 leukemia were greater than 100 µM, 71.8 µM and 56800 nM, respectively. For the same compound, the TGI in the experiment on OVCAR-5 ovarian, in the experiment with SR leukemia, in the experiment with U251 CNS, with OVCAR-3 ovarian, in the experiment on NCI-H522 lung and in the experiment on SK-MEL-28 melanoma was greater than 100 µM in each case. In addition, the TGI with DU-145 prostate, with OVCAR-8 ovarian and in the experiment on K-562 leukemia was greater than 100 µM throughout.

Consider `Cc1cc(=O)oc2cc(OCCn3c(C)nn(-c4ccc(Cl)cc4)c3=O)ccc12`, for which the GI50 in the experiment with OVCAR-5 ovarian was 21.9 µM; in the experiment on SR leukemia it was 497 nM; in the experiment with U251 CNS, 4.18 µM; with OVCAR-3 ovarian, 3.25 µM; in the experiment on NCI-H522 lung, 3.85 µM; in the experiment on SK-MEL-28 melanoma, 3.13 µM. In addition, the GI50 in the experiment with DU-145 prostate was 3.9 µM; with OVCAR-8 ovarian, 5.17 µM; in the experiment with K-562 leukemia it was 1290 nM. Besides, the TGI with OVCAR-5 ovarian was greater than 100 µM; in the experiment with SR leukemia it was 6.67 µM; in the experiment on U251 CNS, 72.3 µM; in the experiment with OVCAR-3 ovarian, 15.2 µM; with NCI-H522 lung it was 33.2 µM; in the experiment with SK-MEL-28 melanoma it was greater than 100 µM. Further, the TGI in the experiment on DU-145 prostate, in the experiment on OVCAR-8 ovarian and with K-562 leukemia was greater than 100 µM in each case.
